Key:
[1] = test system: human cervical tumor cell line HeLa (ATCC CCL-2); assay: SAC-Formation - Paclitaxel-Induced Assay; assay type: cell-based; settings: Homo sapiens, HeLa, 24 h, HeLa cells, paclitaxel 0.05 μM, test range 0.005 μM-20 μM, read-out: IC50 [mol/l] SAC-Formation - Paclitaxel-Induced Assay
Outline: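 Read-out is high-content imaging of anti-phospho-H3 Ser10 (mitosis) and Hoechst 33342 (DNA, cell number), with decreased mitotic fraction marking checkpoint breakthrough. Compounds (0.005–20 μM) and 0.05 μM paclitaxel co-added to overnight-plated HeLa for 24 h at 37° C; four-parameter Hill fit.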

HeLa = assay: Proliferation assay (crystal violet), HeLa; assay type: cell-based; settings: Homo sapiens, HeLa, 96 h, HeLa cells; 4 days incubation; crystal violet staining; read-out: IC50 inhibition of proliferation, HeLa
Outline: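 Crystal violet proliferation readout, 4-day compound incubation, 0.001–10 μM, final DMSO 0.5%. Zero-point plate stained at time of dosing set as 0%, untreated control as 100%; IC50 via 4-parameter fit.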

| Compound | IC50 [1] [nM] | IC50 (HeLa) [nM] |
| --- | --- | --- |
| Cc1nsc(Nc2cnc3ccccc3n2)c1C(=O)Nc1ccc(OC2CCN(CC(F)(F)F)CC2)nc1 [Example 21, 3-Methyl-5-(quinoxalin-2-ylamino)-N-(6-{[1-(2,2,2-trifluoroethyl)piperidin-4-yl]oxy}-pyridin-3-yl)-1,2-thiazole-4-carboxamide] | 150 | 870 |
| CC(=O)N1CCC(Oc2ccc(NC(=O)c3c(C)nsc3Nc3cnc4ccccc4n3)cn2)CC1 [Example 22, N-{6-[(1-acetylpiperidin-4-yl)oxy]pyridin-3-yl}-3-methyl-5-(quinoxalin-2-ylamino)-1,2-thiazole-4-carboxamide] | 2100 | 7600 |
| Cc1nsc(Nc2cc(C#N)ccn2)c1C(=O)Nc1ccc(OC2CCN(C(=O)OC(C)(C)C)CC2)nc1 [Example 23, tert-Butyl 4-({5-[({5-[(4-cyanopyridin-2-yl)amino]-3-methyl-1,2-thiazol-4-yl}-carbonyl)amino]pyridin-2-yl}oxy)piperidine-1-carboxylate] | 32 | 2600 |
| Cc1nsc(Nc2cc(C#N)ccn2)c1C(=O)Nc1ccc(OC2CCNCC2)nc1 [Example 24, 5-[(4-Cyanopyridin-2-yl)amino]-3-methyl-N-[6-(piperidin-4-yloxy)pyridin-3-yl]-1,2-thiazole-4-carboxamide] | 20000 | 10000 |
| Cc1nsc(Nc2cc(C#N)ccn2)c1C(=O)Nc1ccc(OC2CCN(CC(F)(F)F)CC2)nc1 [Example 25, 5-[(4-Cyanopyridin-2-yl)amino]-3-methyl-N-(6-{[1-(2,2,2-trifluoroethyl)piperidin-4-yl]oxy}pyridin-3-yl)-1,2-thiazole-4-carboxamide] | 66 | 2100 |
| CCN1CCC(Oc2ccc(NC(=O)c3c(C)nsc3Nc3cc(C#N)ccn3)cn2)CC1 [Example 26, 5-[(4-Cyanopyridin-2-yl)amino]-N-{6-[(1-ethylpiperidin-4-yl)oxy]pyridin-3-yl}-3-methyl-1,2-thiazole-4-carboxamide] | 20000 | 10000 |
| Cc1nsc(Nc2ccc(C#N)cn2)c1C(=O)Nc1ccc(OC2CCN(C(=O)OC(C)(C)C)CC2)nc1 [Example 27, tert-Butyl 4-({5-[({5-[(5-cyanopyridin-2-yl)amino]-3-methyl-1,2-thiazol-4-yl}-carbonyl)amino]pyridin-2-yl}oxy)piperidine-1-carboxylate] | 130 | 630 |
| Cc1nsc(Nc2cnc3ccccc3n2)c1C(=O)Nc1ccc(N2CCN(C(=O)OC(C)(C)C)CC2)nc1 [Example 248, tert-butyl 4-[5-({[3-methyl-5-(quinoxalin-2-ylamino)-1,2-thiazol-4-yl]carbonyl}amino)pyridin-2-yl]piperazine-1-carboxylate] | 940 | 3100 |
| Cc1nsc(Nc2cnc3ccccc3n2)c1C(=O)Nc1cccc(C(=O)NC2CC2)c1 [Example 249, N-[3-(cyclopropylcarbamoyl)phenyl]-3-methyl-5-(quinoxalin-2-ylamino)-1,2-thiazole-4-carboxamide] | 1100 | 6200 |
| Cc1nsc(Nc2ccc(C#N)cn2)c1C(=O)Nc1cccc(C(=O)NC2CC2)c1 [Example 250, 5-[(5-cyanopyridin-2-yl)amino]-N-[3-(cyclopropylcarbamoyl)phenyl]-3-methyl-1,2-thiazole-4-carboxamide] | 4700 | > 10000 |
| CCNC(=O)c1cccc(NC(=O)c2c(C)nsc2Nc2cnc3ccccc3n2)c1 [Example 251, N-[3-(ethylcarbamoyl)phenyl]-3-methyl-5-(quinoxalin-2-ylamino)-1,2-thiazole-4-carboxamide] | 3000 | 4500 |
| CCNC(=O)c1cccc(NC(=O)c2c(C)nsc2Nc2ccc(C#N)cn2)c1 [Example 252, 5-[(5-cyanopyridin-2-yl)amino]-N-[3-(ethylcarbamoyl)phenyl]-3-methyl-1,2-thiazole-4-carboxamide] | 120 | > 10000 |
| Cc1nsc(Nc2cnc3ccccc3n2)c1C(=O)Nc1cccc(C(=O)NC(C)C)c1 [Example 253, N-[3-(isopropylcarbamoyl)phenyl]-3-methyl-5-(quinoxalin-2-ylamino)-1,2-thiazole-4-carboxamide] | 2200 | 3100 |
| Cc1nsc(Nc2cc(C#N)ccn2)c1C(=O)Nc1cccc(C(=O)NC(C)C)c1 [Example 254, 5-[(4-cyanopyridin-2-yl)amino]-N-[3-(isopropylcarbamoyl)phenyl]-3-methyl-1,2-thiazole-4-carboxamide] | 2300 | > 10000 |
| Cc1nsc(Nc2ccc(C#N)cn2)c1C(=O)Nc1cccc(C(=O)NC(C)C)c1 [Example 255, 5-[(5-cyanopyridin-2-yl)amino]-N-[3-(isopropylcarbamoyl)phenyl]-3-methyl-1,2-thiazole-4-carboxamide] | 10000 | 6100 |
| COC(=O)CCCc1ccc(NC(=O)c2c(C)nsc2Nc2cc(C#N)ccn2)cc1 [Example 256, methyl 4-{4-[({5-[(4-cyanopyridin-2-yl)amino]-3-methyl-1,2-thiazol-4-yl}carbonyl)amino]phenyl}butanoate] | 3600 | > 10000 |
| COC(=O)CCc1cccc(NC(=O)c2c(C)nsc2Nc2cnc3ccccc3n2)c1 [Example 257, methyl 3-[3-({[3-methyl-5-(quinoxalin-2-ylamino)-1,2-thiazol-4-yl]carbonyl}amino)phenyl]propanoate] | 2700 | 7700 |
| Cc1nsc(Nc2cnc3ccccc3n2)c1C(=O)Nc1cccc(NS(=O)(=O)C2CCN(C(=O)OC(C)(C)C)CC2)c1 [Example 258, tert-butyl 4-{[3-({[3-methyl-5-(quinoxalin-2-ylamino)-1,2-thiazol-4-yl]carbonyl}amino)phenyl]sulfamoyl} piperidine-1-carboxylate] | 2000 | 7000 |
| Cc1nsc(Nc2cnc(C(F)(F)F)cn2)c1C(=O)Nc1ccc(C(=O)NC2CCN(CC(F)F)CC2)cc1 [Example 259, N-(4-{[1-(2,2-difluoroethyl)piperidin-4-yl]carbamoyl}phenyl)-3-methyl-5-{[5-(trifluoromethyl)pyrazin-2-yl]amino}-1,2-thiazole-4-carboxamide] | 4400 | > 10000 |
| Cc1nsc(Nc2cnc(C(F)(F)F)cn2)c1C(=O)Nc1ccc(C(=O)N2CCN(CC(F)(F)F)CC2)cc1 [Example 260, 3-methyl-N-(4-{[4-(2,2,2-trifluoroethyl)piperazin-1-yl]carbonyl}phenyl)-5-{[5-(trifluoromethyl)pyrazin-2-yl]amino}-1,2-thiazole-4-carboxamide] | 400 | 1500 |

Now from value to compound:

| IC50 [1] [nM] | IC50 (HeLa) [nM] | Compound |
| --- | --- | --- |
| 2900 | 4800 | CCN1CCN(C(=O)c2ccc(NC(=O)c3c(C)nsc3Nc3cnc(C(F)(F)F)cn3)cc2)CC1 [Example 261, N-{4-[(4-ethylpiperazin-1-yl)carbonyl]phenyl}-3-methyl-5-{[5-(trifluoromethyl)pyrazin-2-yl]amino}-1,2-thiazole-4-carboxamide] |
| 4800 | 9400 | Cc1nsc(Nc2cnc(C(F)(F)F)cn2)c1C(=O)Nc1ccc(C(=O)N2CCN(C)CC2)cc1 [Example 262, 3-methyl-N-{4-[(4-methylpiperazin-1 yl)carbonyl]phenyl}-5-{[5-(trifluoromethyl)pyrazin-2-yl]amino}-1,2-thiazole-4-carboxamide] |
| 3500 | 3200 | Cc1nsc(Nc2cc(C#N)ccn2)c1C(=O)Nc1ccc(OC2CCN(CC(F)F)CC2)nc1 [Example 263, 5-[(4-cyanopyridin-2-yl)amino]-N-(6-{[1-(2,2-difluoroethyl)piperidin-4-yl]oxy}pyridin-3-yl)-3-methyl-1,2-thiazole-4-carboxamide] |
| 72 | 130 | Cc1nsc(Nc2cnc(C(F)(F)F)cn2)c1C(=O)Nc1ccc(F)c(OC2CCN(CC(F)(F)F)CC2)c1 [Example 264, N-(4-fluoro-3-{[1-(2,2,2-trifluoroethyl)piperidin-4-yl]oxy}phenyl)-3-methyl-5-{[5-(trifluoromethyl)pyrazin-2-yl]amino}-1,2-thiazole-4-carboxamide] |
| 150 | 320 | Cc1nsc(Nc2cnc(C(F)(F)F)cn2)c1C(=O)Nc1ccc(F)c(OC2CCN(CC(F)F)CC2)c1 [Example 265, N-(3-{[1-(2,2-difluoroethyl)piperidin-4-yl]oxy}-4-fluorophenyl)-3-methyl-5-{[5-(trifluoromethyl)pyrazin-2-yl]amino}-1,2-thiazole-4-carboxamide] |
| 160 | 310 | Cc1nsc(Nc2cnc(C(F)(F)F)cn2)c1C(=O)Nc1ccc(F)c(OC2CCN(CCF)CC2)c1 [Example 266, N-(4-fluoro-3-{[1-(2-fluoroethyl)piperidin-4-yl]oxy}phenyl)-3-methyl-5-{[5-(trifluoromethyl)pyrazin-2-yl]amino}-1,2-thiazole-4-carboxamide] |
| 20 | 580 | Cc1nsc(Nc2cncc(C(F)(F)F)n2)c1C(=O)Nc1ccc(F)c(OC2CCN(CC(F)(F)F)CC2)c1 [Example 267, N-(4-fluoro-3-{[1-(2,2,2-trifluoroethyl)piperidin-4-yl]oxy}phenyl)-3-methyl-5-{[6-(trifluoromethyl)pyrazin-2-yl]amino}-1,2-thiazole-4-carboxamide] |
| – | 420 | Cc1nsc(Nc2cnc(C(F)(F)F)cn2)c1C(=O)Nc1ccc(F)c(OCC2CCN(C(CF)CF)CC2)c1 [Example 312, N-(3-{[1-(1,3-difluoropropan-2-yl)piperidin-4-yl]methoxy}-4-fluorophenyl)-3-methyl-5-{[5-(trifluoromethyl)pyrazin-2-yl]amino}-1,2-thiazole-4-carboxamide] |
